Assay results reported in patent US7291612B2, “Immunomodulatory compounds” (Active Biotech A.B., priority 2002, dated 2007).

Biological target: T1, CD80-CD28 interaction (Homo sapiens, UniProt P33681)
T1 construct: mouse Fab fragment (fusion partner)
T1 sequence (P33681 35-242 limits assumed): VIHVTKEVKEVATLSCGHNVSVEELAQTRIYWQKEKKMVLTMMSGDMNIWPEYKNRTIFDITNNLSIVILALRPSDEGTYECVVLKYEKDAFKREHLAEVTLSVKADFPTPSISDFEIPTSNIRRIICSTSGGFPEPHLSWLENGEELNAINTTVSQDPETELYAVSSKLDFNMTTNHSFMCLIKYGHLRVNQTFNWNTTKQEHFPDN
Test: cell free Homogenous Time Resolved Fluorescence (HTRF) assay, inhibition of the CD80-CD28 interaction
Assay type: binding
Conditions: 4 hours at room temperature, read-out: Activity (EC50 in summary form)
Method: The examples described above were tested in a cell free Homogenous Time Resolved Fluorescence (HTRF) assay to determine their activity as inhibitors of the CD80-CD28 interaction.
In the assay, europium and allophycocyanin (APC) are associated with CD28 and CD80 indirectly (through antibody linkers) to form a complex, which brings the europium and APC into close proximity to generate a signal. The complex comprises the following six proteins: fluorescent label 1, linker antibody 1, CD28 fusion protein, CD80 fusion protein, linker antibody 2, and fluorescent label 2. The table below describes these reagents in greater detail.
On formation of the complex, europium and APC are brought into proximity and a signal is generated.
Non-specific interaction was measured by substituting a mouse Fab fragment (C215) for the CD80 mouse Fab fragment fusion protein (1.9 μg/ml). The assay was carried out in black 384 well plates in a final volume of 30 μl. Assay buffer: 50 mM Tris-HCl, 150 mM NaCl pH7.8, containing 0.1% BSA (w/v) added just prior to use.
Compounds were added to the above reagents in a concentration series ranging between 100 μM-1.7 nM. The reaction was incubated for 4 hours at room temperature. Dual measurements were made using a Wallac Victor 1420 Multilabel Counter. First measurement: excitation 340 nm, emission 665 nm, delay 50 μs, window time 200 μs. second measurement: excitation 340 nm, emission 615 nm, delay 50 μs, window time 200 μs. Counts were automatically corrected for fluorescence crossover, quenching and background.

`CN1C2CCC1CC(NC(=O)c1ccc(-n3nc4c5cccc(F)c5[nH]c(C5CC5)c-4c3=O)cc1)C2` (stereo not shown) [Example 134] showed an EC50 of less than 1000 nM.

With `CCN(CC)CCCCNC(=O)c1ccc(-n2nc3c4cccc(F)c4[nH]c(C4CC4)c-3c2=O)cc1` [Example 135] the EC50 was less than 1000 nM.

`CC(C)(C)OC(=O)N1CCC(NC(=O)c2ccc(-n3nc4c5cccc(F)c5[nH]c(C5CC5)c-4c3=O)cc2)CC1` [Example 136] was tested, and the EC50 was 1000 to 10000 nM.

For `O=C(NCCCN1CCN(Cc2c(F)cccc2Cl)CC1)c1ccc(-n2nc3c4cccc(F)c4[nH]c(C4CC4)c-3c2=O)cc1` [Example 137], the EC50 was less than 1000 nM.

`O=C(NCCc1ccccn1)c1ccc(-n2nc3c4cccc(F)c4[nH]c(C4CC4)c-3c2=O)cc1` [Example 138] gave an EC50 of 1000 to 10000 nM.

In the case of `O=C(NCCc1cccnc1)c1ccc(-n2nc3c4cccc(F)c4[nH]c(C4CC4)c-3c2=O)cc1` [Example 139], the EC50 is reported as greater than 10000 nM.

`CN(C)CC(C)(C)CNC(=O)c1ccc(-n2nc3c4cccc(F)c4[nH]c(C4CC4)c-3c2=O)cc1` [Example 140] showed an EC50 of less than 1000 nM.

With `O=C(NCCCN1CCCC1)c1ccc(-n2nc3c4cccc(F)c4[nH]c(C4CC4)c-3c2=O)cc1` [Example 141] the EC50 was less than 1000 nM.

Work on `CCOC(=O)CNC(=O)Nc1ccc(-n2nc3c4cccc(F)c4[nH]cc-3c2=O)cc1` [Example 142, {3-[4-(6-Fluoro-3-oxo-3,5-dihydro-pyrazolo[4,3-c]quinolin-2-yl)-phenyl]-ureido} acetic acid ethyl ester] yielded an EC50 of less than 1000 nM.

Molecule `CCCNC(=O)Nc1ccc(-n2nc3c4cccc(F)c4[nH]cc-3c2=O)cc1` [Example 145] has an EC50 of less than 1000 nM.

`CC(C)(C)NC(=O)Nc1ccc(-n2nc3c4cccc(F)c4[nH]cc-3c2=O)cc1` [Example 146] showed an EC50 of less than 1000 nM.

Molecule `O=C(Nc1ccccc1)Nc1ccc(-n2nc3c4cccc(F)c4[nH]cc-3c2=O)cc1` [Example 147] has an EC50 of 1000 to 10000 nM.

For `O=c1c2c[nH]c3c(F)cccc3c-2nn1-c1ccc(NC(=S)NC2CC2)cc1` [Example 148], the EC50 was 1000 to 10000 nM.

`O=c1c2c[nH]c3c(F)cccc3c-2nn1-c1ccc(NC(=S)NC2CCCCC2)cc1` [Example 149] gave an EC50 greater than 10000 nM.

`CC(C)(C)OC(=O)Nc1ccc(-n2nc3c4cccc(F)c4[nH]cc-3c2=O)cc1` [Example 150] gave an EC50 of less than 1000 nM.

`CCOC(=O)Nc1ccc(-n2nc3c4cccc(F)c4[nH]cc-3c2=O)cc1` [Example 151] showed an EC50 of 1000 to 10000 nM.

With `CN(C)CCOC(=O)Nc1ccc(-n2nc3c4cccc(F)c4[nH]cc-3c2=O)cc1` [Example 152] the EC50 was less than 1000 nM.

Work on `COC(=O)Nc1ccc(-n2nc3c4ccccc4[nH]c(C4CC4)c-3c2=O)cc1` [Example 153] yielded an EC50 of 1000 to 10000 nM.

With `CN(C)CCCOC(=O)Nc1ccc(-n2nc3c4cccc(F)c4[nH]cc-3c2=O)cc1` [Example 154] the EC50 was less than 1000 nM.

`O=C(Nc1ccc(-n2nc3c4cccc(F)c4[nH]cc-3c2=O)cc1)OC1CCN(Cc2ccccc2)CC1` [Example 155] gave an EC50 of 1000 to 10000 nM.

`CCCCCNC(=S)Nc1ccc(-n2nc3c4cccc(F)c4[nH]cc-3c2=O)cc1` [Example 156] was tested, and the EC50 was 1000 to 10000 nM.

For `CC(C)C(C)NC(=S)Nc1ccc(-n2nc3c4cccc(F)c4[nH]cc-3c2=O)cc1` (stereo not shown) [Example 157], the EC50 was 1000 to 10000 nM.

For `CCN(CC)CCCCNC(=O)Nc1ccc(-n2nc3c4cccc(F)c4[nH]cc-3c2=O)cc1` [Example 158], the EC50 was less than 1000 nM.

In the case of `CCCNC(=O)Nc1ccc(-n2nc3c4ccccc4[nH]cc-3c2=O)cc1` [Example 159], the EC50 is reported as less than 1000 nM.

`O=c1c2c[nH]c3ccccc3c-2nn1-c1ccc(NC(=S)NC2CC2)cc1` [Example 160] showed an EC50 of 1000 to 10000 nM.

`CN(C)CCCNC(=O)Nc1ccc(-n2nc3c4cccc(F)c4[nH]cc-3c2=O)cc1` [Example 161] was tested, and the EC50 was less than 1000 nM.

`COC(=O)[C@@H](NC(=O)Nc1ccc(-n2nc3c4ccccc4[nH]cc-3c2=O)cc1)C(C)C` [Example 162] showed an EC50 of less than 1000 nM.

For `CN(C)CCCCNC(=O)Nc1ccc(-n2nc3c4cccc(F)c4[nH]cc-3c2=O)cc1` [Example 163], the EC50 was less than 1000 nM.

Molecule `O=C(NCCCCN1CCCC1)Nc1ccc(-n2nc3c4cccc(F)c4[nH]cc-3c2=O)cc1` [Example 164] has an EC50 of less than 1000 nM.

`CN(C)CCCNC(=O)c1ccc(-n2nc3c4ccccc4scc-3c2=O)cc1` [Example 165, N-[3-(dimethylamino)propyl]-4-(3-oxothiochromeno[4,3-c]pyrazol-2(3H)-yl)benzamide] gave an EC50 of 1000 to 10000 nM.

`O=C(NCCCNC1CCCCC1)c1ccc(-n2nc3c4ccccc4scc-3c2=O)cc1` [Example 166, N-[(cyclohexylamino)propyl]-4-(3-oxothiochromeno[4,3-c]pyrazol-2(3H)-yl)benzamide] showed an EC50 of less than 1000 nM.

For `O=C(NCCCCN1CCCC1)c1ccc(-n2nc3c4ccccc4scc-3c2=O)cc1` [Example 167, N-(pyrrolidin-1-yl-butyl)-4-(3-oxothiochromeno[4,3-c]pyrazol-2(3H)-yl)benzamide], the EC50 was greater than 10000 nM.

Work on `CN1C(C)(C)CC(NC(=O)c2ccc(-n3nc4c5ccccc5scc-4c3=O)cc2)CC1(C)C` [Example 168, 4-(3-oxothiochromeno[4,3-c]pyrazol-2(3H)-yl)-N-1,2,2,6,6-pentamethylpiperidin-4-ylbenzamide] yielded an EC50 of 1000 to 10000 nM.

For `CN(C)CCCNC(=O)c1ccc(-n2nc3c4cccc(F)c4scc-3c2=O)cc1` [Example 169, N-[3-(dimethylamino)propyl]-4-(6-fluoro-3-oxothiochromeno[4,3-c]pyrazol-2(3H)-yl)benzamide], the EC50 was 1000 to 10000 nM.

For `O=C(NCCCNC1CCCCC1)c1ccc(-n2nc3c4cccc(F)c4scc-3c2=O)cc1` [Example 170, N-[(cyclohexylamino)propyl]-4-(6-fluoro-3-oxothiochromeno[4,3-c]pyrazol-2(3H)-yl)benzamide], the EC50 was 1000 to 10000 nM.

In the case of `O=C(NCCCCN1CCCC1)c1ccc(-n2nc3c4cccc(F)c4scc-3c2=O)cc1` [Example 171, N-(pyrrolidin-1-yl-butyl)-4-(6-fluoro-3-oxothiochromeno[4,3-c]pyrazol-2(3H)-yl)benzamide], the EC50 is reported as less than 1000 nM.

Work on `CN1C(C)(C)CC(NC(=O)c2ccc(-n3nc4c5cccc(F)c5scc-4c3=O)cc2)CC1(C)C` [Example 173, 4-(6-fluoro-3-oxothiochromeno[4,3-c]pyrazol-2(3H)-yl)-N-1,2,2,6,6-pentamethylpiperidin-4-ylbenzamide] yielded an EC50 of less than 1000 nM.
